Where two headings read alike, the source gives them in different places.
Key:
[1] = Kinetic solubility in PBS; assay type: physicochemical; conditions: aqueous buffer, kinetic from dmso stock
Experimental: The kinetic solubility of test articles was determined in PBS at pH 2.0 and pH 7.4 in duplicate. A stock solution of test compound in DMSO (10 mM) was incubated at RT for 2 hours with shaking at 1,100 RPM. The sample was then filtered using a vacuum manifold, diluted, and analyzed by LC-MS/MS. Chromatographic conditions: Phenomenex Synergi 4μ Hydro-PR 80A column (2.0×30 mm) coupled with pre-guard column; mobile phase=0.1% formic acid in acetonitrile and 0.1% formic acid in water; flowrate=0.65 mL/min; column temperature=40° C.; injection volume: 3 μL.
Mass conditions: Turbo spray ion source; ESI ionization model; MRM scan type; Collison gas=6 L/min; Curtain gas=30 L/min; Nebulize gas=50 L/min; Auxiliary gas=50 L/min; Temperature=500 degrees C.; Ion spray voltage=+5500 v (positive MRM).
The filtered solution was analyzed and quantified against a standard of known concentration in DMSO using UPLC coupled with mass spectral peak identification and quantitation. Solubility values of the test articles were calculated using Microsoft Excel as follows (DF is the dilution factor): […]

[2] = In vitro human hepatocyte stability; assay type: in vitro ADME; conditions: cryopreserved human hepatocytes (pooled donor), human hepatocytes 0.5×10^6 cells/mL, read-out: Scaled-up unbound CLint
Experimental: The metabolic stability of test articles (1 μM) in commercially sourced, pooled donor, cryopreserved human hepatocytes (0.5×10^6 cells/mL) was determined in duplicate. The CLint reactions (250 μL) were initiated by addition of test compound. Aliquots (25 μL) were taken at 0, 15, 30, 45, 60, 90, 120 and 240 minutes and then protein crashed with ice-cold acetonitrile containing internal standard then centrifuged (3220 g for 25 minutes). Supernatant was used for LC-MS/MS analysis. The in vitro half-life (in vitro t1/2) was determined from the slope value: in vitro t1/2=−0.693/k. Conversion of the in vitro t1/2 (in min) into the scale-up unbound intrinsic clearance (Scaled-up unbound CLint, in mL/min/kg) was done using the following equation (mean of duplicate determinations), with data shown in Table 5: Scaled-up unbound CLint=kV/N×scaling factor. V=incubation volume (0.25 mL); N=number of hepatocytes per well ([…]). Scaling factors for in vivo intrinsic clearance prediction are listed below: […]

MAGL [3] = molecular target: T1, MAGL (Mus musculus, UniProt O35678); assay: In vivo MAGL inhibition in mouse brain proteomes after oral gavage; conditions: 5 mg/kg oral gavage, 4 h after administration, read-out: MAGL % inh. 5 mg/kg (mouse)
T1 construct: brain proteomes were prepared and analyzed according to previously established methods; from tissue; host or cells: brain of wild-type C57Bl/6J mice
T1 sequence (O35678 1-303): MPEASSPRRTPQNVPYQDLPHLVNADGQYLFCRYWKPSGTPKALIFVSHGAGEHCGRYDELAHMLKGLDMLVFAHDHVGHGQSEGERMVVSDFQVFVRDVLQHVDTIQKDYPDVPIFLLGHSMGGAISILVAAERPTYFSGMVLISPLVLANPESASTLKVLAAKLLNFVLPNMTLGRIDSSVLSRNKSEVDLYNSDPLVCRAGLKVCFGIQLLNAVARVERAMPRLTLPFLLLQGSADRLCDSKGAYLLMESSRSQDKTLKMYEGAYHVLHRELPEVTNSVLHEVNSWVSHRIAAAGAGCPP
Experimental: Inhibitors were administered to wild-type C57B1/6J by oral gavage in a vehicle of polyethylene glycol. Each animal was sacrificed 4 h following administration and brain proteomes were prepared and analyzed according to previously established methods (See Niphakis, M. J., et al. (2011) ACS Chem. Neurosci. and Long, J. Z., et al. Nat. Chem. Biol. 5:37-44).

MAGL [4] = molecular target: T2, MAGL (Homo sapiens, UniProt Q99685); assay: In vitro competitive activity-based protein profiling (PC3 human cell membrane proteomes); assay type: biochemical
T2 construct: PC3 human cell membrane proteomes; endogenous in cells; host or cells: PC3 human cells (membrane proteome)
T2 sequence (Q99685 1-303): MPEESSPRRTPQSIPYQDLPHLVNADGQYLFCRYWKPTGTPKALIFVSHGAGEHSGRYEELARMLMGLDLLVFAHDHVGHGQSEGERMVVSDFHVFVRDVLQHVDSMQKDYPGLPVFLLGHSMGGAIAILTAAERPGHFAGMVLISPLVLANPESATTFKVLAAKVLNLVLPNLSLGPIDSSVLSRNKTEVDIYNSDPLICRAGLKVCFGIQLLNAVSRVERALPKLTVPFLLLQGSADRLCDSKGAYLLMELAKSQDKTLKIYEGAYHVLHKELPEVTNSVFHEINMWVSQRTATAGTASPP
Experimental: PC3 human cell membrane proteomes (50 µL, 2.0 mg/mL total protein concentration) were preincubated with varying concentrations of inhibitors at 37° C. After 30 min, the ABPP probe JW912-Bodipy (1.0 µL, 50 µM in DMSO) was added and the mixture was incubated for 30 min at room temperature. Reactions were quenched with SDS loading buffer (15 μL-4×) and run on SDS-PAGE. Following gel imaging, serine hydrolase activity was determined by measuring fluorescent intensity of gel bands corresponding to MAGL using ImageJ 1.43u software. Intensities were converted to percent enzyme activity by normalizing to DMSO controls. IC50 values were determined by fitting percent enzyme activities to a non-linear regression, 4-parameter, sigmoidal dose response function in Prism GraphPad.

[5] = PBS pH 7.4, RT, read-out: pH 7.4 Solubility (kinetic)

SMILES: O=C(Nc1ccc(-n2cccn2)nc1)C1CC12CCN(C(=O)OC(C(F)(F)F)C(F)(F)F)CC2 (single isomer, unassigned) [Example 29, 1,1,1,3,3,3-hexafluoropropan-2-yl (R or S)-1-((6-(1H-pyrazol-1-yl)pyridin-3-yl)carbamoyl)-6-azaspiro[2.5]octane-6-carboxylate]
- solubility kinetic at 2 h [1, 5]: 8.63 µM
- CLint scaled at 1 μM [2]: 32.7 mL/min/kg

SMILES: COc1ccc(NC(=O)[C@@H]2CC23CCN(C(=O)OC(C(F)(F)F)C(F)(F)F)CC3)cn1 (single isomer, unassigned) [Example 36]
- inhibition at 5 mg/kg (MAGL [3]): 0%

SMILES: COc1ccc(NC(=O)[C@H]2CC23CCN(C(=O)OC(C(F)(F)F)C(F)(F)F)CC3)cn1 (single isomer, unassigned) [Example 37]
- inhibition at 5 mg/kg (MAGL [3]): 25%

SMILES: CN(C(=O)C1CC12CCN(C(=O)OC(C(F)(F)F)C(F)(F)F)CC2)c1cccnc1 (single isomer, unassigned) [Example 43, 1,1,1,3,3,3-hexafluoropropan-2-yl (R or S)-1-(methyl(pyridin-3-yl)carbamoyl)-6-azaspiro[2.5]octane-6-carboxylate]
- inhibition at 5 mg/kg (MAGL [3]): 100%
- solubility kinetic at 2 h [1, 5]: 233 µM
- MAGL % inh. 1 µM (human PC3) (MAGL [4]): 100%

SMILES: O=C(OC(C(F)(F)F)C(F)(F)F)N1CCC2(CC1)CC2C(=O)N1CCc2ncncc2C1 (single isomer, unassigned) [Example 60, 1,1,1,3,3,3-hexafluoropropan-2-yl (R or S)-1-(5,6,7,8-tetrahydropyrido[4,3-d]pyrimidine-6-carbonyl)-6-azaspiro[2.5]octane-6-carboxylate]
- solubility kinetic at 2 h [1, 5]: 259 µM
- MAGL % inh. 1 µM (human PC3) (MAGL [4]): 100%

SMILES: O=C(NCc1cccc(C(F)(F)F)n1)C1CC12CCN(C(=O)OC(C(F)(F)F)C(F)(F)F)CC2 (single isomer, unassigned) [Example 76, 1,1,1,3,3,3-hexafluoropropan-2-yl (R or S)-1-(((6-(trifluoromethyl)pyridin-2-yl)methyl)carbamoyl)-6-azaspiro[2.5]octane-6-carboxylate]
- solubility kinetic at 2 h [1, 5]: 1.33 µM
- MAGL % inh. 1 µM (human PC3) (MAGL [4]): 100%

SMILES: O=C(Nc1ccc(C(F)(F)F)nc1)C1CC12CCN(C(=O)OC(C(F)(F)F)C(F)(F)F)CC2 (single isomer, unassigned) [Example 78, 1,1,1,3,3,3-hexafluoropropan-2-yl (R or S)-1-((6-(trifluoromethyl)pyridin-3-yl)carbamoyl)-6-azaspiro[2.5]octane-6-carboxylate]
- solubility kinetic at 2 h ([1]; PBS pH 2.0, RT, read-out: pH 2 Solubility (kinetic)): 17 µM
- solubility kinetic at 2 h [1, 5]: 12.6 µM
- MAGL % inh. 1 µM (human PC3) (MAGL [4]): 100%

SMILES: Cc1ccc(NC(=O)C2CC23CCN(C(=O)OC(C(F)(F)F)C(F)(F)F)CC3)cn1 (single isomer, unassigned) [Example 81, 1,1,1,3,3,3-hexafluoropropan-2-yl (R or S)-1-((6-methylpyridin-3-yl)carbamoyl)-6-azaspiro[2.5]octane-6-carboxylate]
- inhibition at 5 mg/kg (MAGL [3]): 25%
- solubility kinetic at 2 h [1, 5]: 130 µM

SMILES: O=C(Nc1cncnc1)C1CC12CCN(C(=O)OC(C(F)(F)F)C(F)(F)F)CC2 (single isomer, unassigned) [Example 97, 1,1,1,3,3,3-hexafluoropropan-2-yl (R or S)-1-(pyrimidin-5-ylcarbamoyl)-6-azaspiro[2.5]octane-6-carboxylate]
- MAGL % inh. 1 µM (human PC3) (MAGL [4]): 90%

SMILES: O=C(Nc1cnc(C(F)(F)F)nc1)C1CC12CCN(C(=O)OC(C(F)(F)F)C(F)(F)F)CC2 (single isomer, unassigned) [Example 99, 1,1,1,3,3,3-hexafluoropropan-2-yl (R or S)-1-((2-(trifluoromethyl)pyrimidin-5-yl)carbamoyl)-6-azaspiro[2.5]octane-6-carboxylate]
- solubility kinetic at 2 h [1, 5]: 28.5 µM
- MAGL % inh. 1 µM (human PC3) (MAGL [4]): 100%

SMILES: O=C(Nc1cnc(C(F)(F)F)nc1)C1CC12CCN(C(=O)OC(C(F)(F)F)C(F)(F)F)CC2 (single isomer, unassigned) [Example 100, 1,1,1,3,3,3-hexafluoropropan-2-yl (R or S)-1-((2-(trifluoromethyl)pyrimidin-5-yl)carbamoyl)-6-azaspiro[2.5]octane-6-carboxylate]
- MAGL % inh. 1 µM (human PC3) (MAGL [4]): 75%

SMILES: Cc1ncc(NC(=O)C2CC23CCN(C(=O)OC(C(F)(F)F)C(F)(F)F)CC3)cn1 (single isomer, unassigned) [Example 103, 1,1,1,3,3,3-hexafluoropropan-2-yl (R or S)-1-((2-methylpyrimidin-5-yl)carbamoyl)-6-azaspiro[2.5]octane-6-carboxylate]
- inhibition at 5 mg/kg (MAGL [3]): 50%

SMILES: Cc1ccc(NC(=O)[C@H]2CC23CCN(C(=O)OC(C(F)(F)F)C(F)(F)F)CC3)nn1 (single isomer, unassigned) [Example 106]
- inhibition at 5 mg/kg (MAGL [3]): 0%

SMILES: O=C(Nc1ccnnc1)C1CC12CCN(C(=O)OC(C(F)(F)F)C(F)(F)F)CC2 (single isomer, unassigned) [Example 108, 1,1,1,3,3,3-hexafluoropropan-2-yl (R or S)-1-(pyridazin-4-ylcarbamoyl)-6-azaspiro[2.5]octane-6-carboxylate]
- inhibition at 5 mg/kg (MAGL [3]): 75%

SMILES: O=C(Nc1cncs1)C1CC12CCN(C(=O)OC(C(F)(F)F)C(F)(F)F)CC2 (single isomer, unassigned) [Example 129, 1,1,1,3,3,3-hexafluoropropan-2-yl (R or S)-1-(thiazol-5-ylcarbamoyl)-6-azaspiro[2.5]octane-6-carboxylate]
- inhibition at 5 mg/kg (MAGL [3]): 50%
- CLint scaled at 1 μM [2]: 53.6 mL/min/kg

SMILES: O=C(NCc1ccccc1)[C@H]1CC12CCN(C(=O)OC(C(F)(F)F)C(F)(F)F)CC2 (single isomer, unassigned) [Example 150]
- CLint scaled at 1 μM [2]: 88.8 mL/min/kg

SMILES: CC1(CNC(=O)C2CC23CCN(C(=O)OC(C(F)(F)F)C(F)(F)F)CC3)CCOCC1 (single isomer, unassigned) [Example 168, 1,1,1,3,3,3-hexafluoropropan-2-yl (R or S)-1-(((4-methyltetrahydro-2H-pyran-4-yl)methyl)carbamoyl)-6-azaspiro[2.5]octane-6-carboxylate]
- CLint scaled at 1 μM [2]: 61.4 mL/min/kg

SMILES: CS(=O)(=O)Nc1ccc(NC(=O)C2CC23CCN(C(=O)OC(C(F)(F)F)C(F)(F)F)CC3)cn1 (single isomer, unassigned) [Example 181, 1,1,1,3,3,3-hexafluoropropan-2-yl (R or S)-1-((6-(methylsulfonamido)pyridin-3-yl)carbamoyl)-6-azaspiro[2.5]octane-6-carboxylate]
- solubility kinetic at 2 h [1, 5]: 296 µM
- CLint scaled at 1 μM [2]: 1.94 mL/min/kg

SMILES: O=C(Nc1cccnn1)[C@@H]1CC12CCN(C(=O)OC(C(F)(F)F)C(F)(F)F)CC2 [Example 5, 1,1,1,3,3,3-Hexafluoropropan-2-yl (R)-1-(pyridazin-3-ylcarbamoyl)-6-azaspiro[2.5]octane-6-carboxylate]
- inhibition at 5 mg/kg (MAGL [3]): 0%

— patent publication US11434222B2, “MAGL inhibitors” (H. LUNDBECK A/S, priority 2020, dated 2022)
